Results published in publication PMC4184702 (Pharmacology Research & Perspectives, 2014).

Legend:
CYP1A = target: T1, CYP1A (Homo sapiens, UniProt P05177); experiment: CYP1A inhibition, HLM, phenacetin substrate; assay type: in vitro ADME; conditions: 1.0E-05 M
T1 construct: from tissue; host or cells: human liver microsomes (HLM)
Description: (§1) Supplement prp20002-e00026-sd1.doc, table 3: Table 3.

human α7-nAChR = target: T2, human α7-nAChR (Homo sapiens, UniProt P36544); experiment: Two-electrode voltage-clamp recording in Xenopus oocytes, α7; assay type: cell-based
T2 construct: expressed in transfected cells; host or cells: Xenopus oocytes (cRNA injection)
T2 sequence (P36544 23-502): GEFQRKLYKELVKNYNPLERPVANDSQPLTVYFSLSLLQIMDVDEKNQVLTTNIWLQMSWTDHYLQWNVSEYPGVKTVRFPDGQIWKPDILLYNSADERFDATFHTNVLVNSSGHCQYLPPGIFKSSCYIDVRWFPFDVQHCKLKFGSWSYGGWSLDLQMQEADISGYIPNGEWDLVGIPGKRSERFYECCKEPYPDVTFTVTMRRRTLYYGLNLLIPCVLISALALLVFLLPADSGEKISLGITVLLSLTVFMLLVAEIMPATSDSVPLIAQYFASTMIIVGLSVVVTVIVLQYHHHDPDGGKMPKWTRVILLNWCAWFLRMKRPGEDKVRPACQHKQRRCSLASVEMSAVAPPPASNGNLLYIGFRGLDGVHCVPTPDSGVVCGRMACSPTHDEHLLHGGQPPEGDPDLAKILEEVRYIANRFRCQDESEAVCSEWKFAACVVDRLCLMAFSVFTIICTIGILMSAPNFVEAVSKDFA
Description: Xenopus oocytes were injected with cRNAs encoding human nicotinic receptor subunits (α4:β2 at 1:1 ratio or α7). Three to five days after injection, oocytes were individually placed in a custom made small volume chamber and continuously perfused with oocyte Ringer's solution (OR2; 92.5 mmol/L NaCl, 2.5 mmol/L KCl, 1 mmol/L CaCl2, 1 mmol/L MgCl2, and 5 mmol/L HEPES at pH 7.5). Drugs were delivered to the oocytes through a ValveLink8.2 computer-controlled perfusion system (Automate Scientific, Inc, Berkeley, CA). The chamber was grounded through an agar KCl bridge. The oocytes were voltage-clamped at −70 mV to measure agonist-induced currents using a GeneClamp 500B amplifier (Axon Instruments, Foster City, CA). The current signal was filtered at 20 Hz with the built-in four pole low-pass Bessel filter and digitized at 100 Hz.

α7 nAChR = conditions: ref Yu et al. [2012], cited from earlier work
[1] = target: β2-containing nAChRs (α2β2, α3β2, α4β2, and α4β2*); set-up: method as in Yu et al. [2012]; conditions: ref Yu et al. [2012], read-out: Ki values range at β2-containing nAChRs; cited from earlier work
α2B adrenergic receptor = target: T3, α2B adrenergic receptor (Homo sapiens, UniProt P18089); experiment: PDSP primary binding, α2B; conditions: n = 4, read-out: Inhibition (primary binding competition efficacy), α2B
T3 construct: purchased NIMH Psychoactive Drug Screening Program (PDSP)
T3 sequence (P18089 whole entry): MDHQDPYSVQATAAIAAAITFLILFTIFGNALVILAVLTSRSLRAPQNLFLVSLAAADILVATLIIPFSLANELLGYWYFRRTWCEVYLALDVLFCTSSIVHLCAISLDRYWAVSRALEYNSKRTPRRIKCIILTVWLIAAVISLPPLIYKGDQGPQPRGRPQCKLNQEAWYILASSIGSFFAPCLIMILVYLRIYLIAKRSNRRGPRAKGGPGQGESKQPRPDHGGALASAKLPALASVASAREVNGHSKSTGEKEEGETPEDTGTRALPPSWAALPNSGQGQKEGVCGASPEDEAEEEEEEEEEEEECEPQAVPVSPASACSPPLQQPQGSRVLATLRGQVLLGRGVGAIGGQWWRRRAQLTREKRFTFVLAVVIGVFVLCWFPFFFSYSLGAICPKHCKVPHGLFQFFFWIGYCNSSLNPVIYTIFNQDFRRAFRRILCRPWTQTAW
Description: (§2) For experimental details, please refer to the Psychoactive Drug Screening Program (PDSP) web site http://pdsp.med.unc.edu/.
(§3) ^a The default concentration for primary binding experiments is 10 µM (n = 4). ^b Negative inhibition represents a stimulation of binding. ^c BZPR: Benzodiazepine Receptors (rat brain site). ^d DOR: Delta Opioid Receptor; KOR: Kappa Opioid Receptor; MOR: Mu Opioid Receptor. ^e DAT: Dopamine Transporter; NET: Norepinephrine Transporter; SERT: Serotonin Transporter. ^f NMDA: N-methyl-D-aspartate receptor.

[2] = target: T4, SERT: Serotonin Transporter (Homo sapiens, UniProt P31645); experiment: PDSP primary binding, SERT; conditions: n = 4, read-out: Inhibition (primary binding competition efficacy), SERT
T4 construct: purchased NIMH Psychoactive Drug Screening Program (PDSP)
Description: as §2, §3

CYP2C19 = target: T5, CYP2C19 (Homo sapiens, UniProt P33261); experiment: CYP2C19 inhibition, HLM, omeprazole substrate; assay type: in vitro ADME; conditions: 1.0E-05 M
T5 construct: from tissue; host or cells: human liver microsomes (HLM)
T5 sequence (P33261 whole entry): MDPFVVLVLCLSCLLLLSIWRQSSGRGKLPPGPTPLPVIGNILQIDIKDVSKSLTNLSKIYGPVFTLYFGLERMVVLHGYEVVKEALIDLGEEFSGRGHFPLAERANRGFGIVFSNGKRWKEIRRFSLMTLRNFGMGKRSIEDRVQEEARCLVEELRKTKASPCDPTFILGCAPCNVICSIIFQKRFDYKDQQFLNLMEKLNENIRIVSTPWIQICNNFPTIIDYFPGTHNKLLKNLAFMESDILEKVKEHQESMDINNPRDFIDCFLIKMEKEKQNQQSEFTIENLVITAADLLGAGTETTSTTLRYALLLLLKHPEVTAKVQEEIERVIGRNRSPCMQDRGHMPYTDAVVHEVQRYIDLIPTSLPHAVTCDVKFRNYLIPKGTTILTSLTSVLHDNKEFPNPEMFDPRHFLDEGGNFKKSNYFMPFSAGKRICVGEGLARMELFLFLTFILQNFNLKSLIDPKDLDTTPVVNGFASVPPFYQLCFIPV
Description: as §1

[3] = target: T6, NET: Norepinephrine Transporter (Homo sapiens, UniProt P23975); experiment: PDSP primary binding, NET; conditions: n = 4, read-out: Inhibition (primary binding competition efficacy), NET
T6 construct: purchased NIMH Psychoactive Drug Screening Program (PDSP)
Description: as §2, §3

CYP3A = CYP3A inhibition, HLM, midazolam substrate; assay type: in vitro ADME, human; conditions: 1.0E-05 M
Description: as §1

[4] = Bacterial cytotoxicity, strain TA1535; assay type: cell-based; conditions: Salmonella typhimurium, bacterial tester strain TA1535 without S9, read-out: Cytotoxicity (% of Control Values)
Description: (§4) Supplement prp20002-e00026-sd1.doc, table 4: Table 4.

[5] = test system: BZPR: Benzodiazepine Receptors (rat brain site); experiment: PDSP primary binding, BZPR; conditions: 10 µM, n = 4
Description: as §2, §3

α1A adrenergic receptor = target: T7, α1A adrenergic receptor (Homo sapiens, UniProt P35348); experiment: PDSP primary binding, α1A; conditions: n = 4, read-out: Inhibition (primary binding competition efficacy), α1A
T7 construct: purchased NIMH Psychoactive Drug Screening Program (PDSP)
T7 sequence (P35348 whole entry): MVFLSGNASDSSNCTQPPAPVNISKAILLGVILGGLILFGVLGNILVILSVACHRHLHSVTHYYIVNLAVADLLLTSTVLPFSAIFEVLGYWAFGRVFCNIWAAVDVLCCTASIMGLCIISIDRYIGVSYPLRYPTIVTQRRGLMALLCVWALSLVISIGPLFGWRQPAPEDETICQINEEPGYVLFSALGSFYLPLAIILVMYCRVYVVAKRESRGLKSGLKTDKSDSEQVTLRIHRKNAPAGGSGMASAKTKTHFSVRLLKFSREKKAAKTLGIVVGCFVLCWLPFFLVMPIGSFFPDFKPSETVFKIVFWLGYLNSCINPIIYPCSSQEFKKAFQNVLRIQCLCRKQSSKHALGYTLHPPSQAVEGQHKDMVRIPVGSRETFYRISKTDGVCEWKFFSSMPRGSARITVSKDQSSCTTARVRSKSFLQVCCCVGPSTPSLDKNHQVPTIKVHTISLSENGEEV
Description: as §2, §3

5-HT2C = target: T8, 5-HT2C (Homo sapiens, UniProt P28335); experiment: PDSP primary binding, 5-HT2C; conditions: n = 4, read-out: Inhibition (primary binding competition efficacy), 5-HT2C
T8 construct: purchased NIMH Psychoactive Drug Screening Program (PDSP)
T8 sequence (P28335 33-458): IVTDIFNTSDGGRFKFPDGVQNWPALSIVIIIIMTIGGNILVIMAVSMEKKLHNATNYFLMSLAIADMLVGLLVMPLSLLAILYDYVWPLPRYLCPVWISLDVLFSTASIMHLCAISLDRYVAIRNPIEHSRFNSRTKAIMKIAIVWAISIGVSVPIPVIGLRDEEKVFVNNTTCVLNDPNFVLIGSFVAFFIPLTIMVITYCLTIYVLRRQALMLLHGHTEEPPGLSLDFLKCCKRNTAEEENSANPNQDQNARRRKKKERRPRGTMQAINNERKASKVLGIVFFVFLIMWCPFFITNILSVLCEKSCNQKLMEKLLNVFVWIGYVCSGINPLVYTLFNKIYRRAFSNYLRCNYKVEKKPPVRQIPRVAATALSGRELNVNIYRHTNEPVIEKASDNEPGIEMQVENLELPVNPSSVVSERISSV
Description: as §2, §3

D4 dopamine receptor = target: T9, D4 dopamine receptor (Homo sapiens, UniProt P21917); experiment: PDSP primary binding, D4; conditions: n = 4, read-out: Inhibition (primary binding competition efficacy), D4
T9 construct: purchased NIMH Psychoactive Drug Screening Program (PDSP)
Description: as §2, §3

[6] = test system: five different cytochrome P450 (CYP450) enzymes (2D6, 3A, 1A, 2C9, and 2C19); experiment: CYP450 inhibition panel (summary); assay type: in vitro ADME, human; conditions: in words
CB1 = target: T10, CB1 (Homo sapiens, UniProt P21554); experiment: PDSP primary binding, CB1; conditions: n = 4, read-out: Inhibition (primary binding competition efficacy), CB1
T10 construct: purchased NIMH Psychoactive Drug Screening Program (PDSP)
T10 sequence (P21554 whole entry): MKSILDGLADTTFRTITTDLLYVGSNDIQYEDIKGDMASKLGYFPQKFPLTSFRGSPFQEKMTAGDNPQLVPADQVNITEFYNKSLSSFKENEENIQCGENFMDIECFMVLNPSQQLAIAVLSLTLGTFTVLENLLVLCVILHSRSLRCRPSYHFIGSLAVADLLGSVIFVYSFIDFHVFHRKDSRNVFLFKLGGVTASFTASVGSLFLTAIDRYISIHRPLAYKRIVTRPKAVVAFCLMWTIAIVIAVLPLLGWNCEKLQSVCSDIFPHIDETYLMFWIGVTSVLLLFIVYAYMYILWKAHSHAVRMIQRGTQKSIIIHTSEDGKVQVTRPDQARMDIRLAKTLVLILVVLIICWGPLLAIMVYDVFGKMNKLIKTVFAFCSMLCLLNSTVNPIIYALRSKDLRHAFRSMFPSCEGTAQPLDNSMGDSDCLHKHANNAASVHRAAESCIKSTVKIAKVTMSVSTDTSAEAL
Description: as §2, §3

H1 histamine receptor = target: T11, H1 histamine receptor (Homo sapiens, UniProt P35367); experiment: PDSP primary binding, H1; conditions: n = 4, read-out: Inhibition (primary binding competition efficacy), H1
T11 construct: purchased NIMH Psychoactive Drug Screening Program (PDSP)
T11 sequence (P35367 whole entry): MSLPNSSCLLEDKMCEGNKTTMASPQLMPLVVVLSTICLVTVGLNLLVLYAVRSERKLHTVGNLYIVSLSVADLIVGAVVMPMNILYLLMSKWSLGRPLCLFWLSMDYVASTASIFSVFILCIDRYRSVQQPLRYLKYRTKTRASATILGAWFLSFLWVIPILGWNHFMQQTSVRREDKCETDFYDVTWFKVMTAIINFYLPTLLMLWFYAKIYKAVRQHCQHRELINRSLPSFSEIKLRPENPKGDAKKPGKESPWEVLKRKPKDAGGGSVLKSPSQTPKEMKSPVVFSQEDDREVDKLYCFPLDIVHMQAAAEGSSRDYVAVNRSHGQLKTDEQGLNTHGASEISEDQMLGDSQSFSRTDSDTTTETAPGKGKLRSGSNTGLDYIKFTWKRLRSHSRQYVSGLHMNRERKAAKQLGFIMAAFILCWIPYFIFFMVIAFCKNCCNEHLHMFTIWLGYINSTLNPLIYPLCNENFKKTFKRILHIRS
Description: as §2, §3

α1D adrenergic receptor = target: T12, α1D adrenergic receptor (Homo sapiens, UniProt P25100); experiment: PDSP primary binding, α1D; conditions: n = 4, read-out: Inhibition (primary binding competition efficacy), α1D
T12 construct: purchased NIMH Psychoactive Drug Screening Program (PDSP)
T12 sequence (P25100 whole entry): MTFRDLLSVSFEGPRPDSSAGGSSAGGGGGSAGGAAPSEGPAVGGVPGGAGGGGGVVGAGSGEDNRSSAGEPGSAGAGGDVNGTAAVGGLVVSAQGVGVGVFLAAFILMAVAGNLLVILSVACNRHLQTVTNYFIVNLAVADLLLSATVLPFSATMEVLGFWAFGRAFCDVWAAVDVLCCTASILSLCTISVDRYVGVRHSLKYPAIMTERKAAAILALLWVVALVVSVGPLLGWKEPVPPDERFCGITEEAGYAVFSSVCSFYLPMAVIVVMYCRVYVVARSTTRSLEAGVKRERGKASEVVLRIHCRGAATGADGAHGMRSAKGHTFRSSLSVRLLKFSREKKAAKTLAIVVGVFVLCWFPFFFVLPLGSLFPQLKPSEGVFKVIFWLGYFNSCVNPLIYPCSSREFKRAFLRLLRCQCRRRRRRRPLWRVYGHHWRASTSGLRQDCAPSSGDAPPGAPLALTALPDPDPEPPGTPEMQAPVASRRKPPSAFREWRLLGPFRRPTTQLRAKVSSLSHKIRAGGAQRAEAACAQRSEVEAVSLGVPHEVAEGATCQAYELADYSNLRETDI
Description: as §2, §3

[7] = Bacterial cytotoxicity, strain TA100; assay type: cell-based; conditions: Salmonella typhimurium, bacterial tester strain TA100 without S9, read-out: Cytotoxicity (% of Control Values)
Description: as §4

C57/BL6J mice = experiment: Preliminary acute maximum tolerated dose study; assay type: in vivo, mouse
[8] = target: T13, KOR: Kappa Opioid Receptor (Homo sapiens, UniProt P41145); experiment: PDSP primary binding, KOR; conditions: n = 4, read-out: Inhibition (primary binding competition efficacy), KOR
T13 construct: purchased NIMH Psychoactive Drug Screening Program (PDSP)
T13 sequence (P41145 whole entry): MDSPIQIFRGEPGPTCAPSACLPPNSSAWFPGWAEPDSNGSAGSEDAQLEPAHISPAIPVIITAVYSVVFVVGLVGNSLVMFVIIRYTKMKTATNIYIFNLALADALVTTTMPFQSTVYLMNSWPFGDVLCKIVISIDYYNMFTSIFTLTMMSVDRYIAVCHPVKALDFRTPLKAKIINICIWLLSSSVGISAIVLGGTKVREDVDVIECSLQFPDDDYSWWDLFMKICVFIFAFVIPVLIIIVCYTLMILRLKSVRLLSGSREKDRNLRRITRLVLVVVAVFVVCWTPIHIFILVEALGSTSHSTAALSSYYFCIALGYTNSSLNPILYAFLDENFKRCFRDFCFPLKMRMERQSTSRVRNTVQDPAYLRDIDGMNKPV
Description: as §2, §3

CYP2D6 = target: T14, CYP2D6 (Homo sapiens, UniProt P10635); experiment: CYP2D6 inhibition, HLM, dextromethorphan substrate; assay type: in vitro ADME; conditions: 1.0E-05 M
T14 construct: from tissue; host or cells: human liver microsomes (HLM)
T14 sequence (P10635 whole entry): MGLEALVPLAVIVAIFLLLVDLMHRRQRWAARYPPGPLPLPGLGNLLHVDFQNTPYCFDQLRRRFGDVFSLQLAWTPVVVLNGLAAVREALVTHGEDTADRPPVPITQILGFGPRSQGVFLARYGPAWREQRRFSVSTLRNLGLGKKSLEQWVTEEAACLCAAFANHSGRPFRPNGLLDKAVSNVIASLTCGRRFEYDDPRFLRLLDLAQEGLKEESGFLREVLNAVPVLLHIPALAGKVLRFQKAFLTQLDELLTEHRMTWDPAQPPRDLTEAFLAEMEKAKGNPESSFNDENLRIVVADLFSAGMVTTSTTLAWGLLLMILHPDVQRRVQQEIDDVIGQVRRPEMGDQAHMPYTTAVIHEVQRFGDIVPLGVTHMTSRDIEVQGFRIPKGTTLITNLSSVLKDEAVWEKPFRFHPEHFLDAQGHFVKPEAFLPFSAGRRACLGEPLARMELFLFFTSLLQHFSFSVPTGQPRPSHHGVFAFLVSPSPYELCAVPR
Description: as §1

OCCc1cc(-c2cncc(OC[C@@H]3CCN3)c2)on1 [LF-3-88, 2-[5-[5-(2(S)-azetidinylmethoxyl)-3-pyridyl]-3-isoxazolyl]ethanol]
CYP1A Inhibition (CYP1A): 13% | agonist activity at α7-nAChRs in oocytes (human α7-nAChR; 20 μmol/L): lack of agonist activity | effect at α7-nAChRs in oocytes (human α7-nAChR; concentrations as high as 20 μmol/L): No effect | antagonist activity at α7-nAChR in oocytes (human α7-nAChR; responses to 100 μmol/L ACh): weak if any antagonist activity | Ki α7 (α7 nAChR; class symbol): NA ^4 (NA: not active, defined as < 50% binding in the primary assay at 10 μmol/L) | Ki (α7 nAChR; read-out: Ki α7-nAChRs): > 10000 nM | Ki [1]: 0.6 to 15.4 nM | inhibition at 10 µM (α2B adrenergic receptor): -17.7% | inhibition at 10 µM [2]: -0.2% | CYP2C19 Inhibition (CYP2C19): 10% | inhibition at 10 µM [3]: 0.4% | CYP3A Inhibition (CYP3A): 1% | viability at 0.0001 M ([4]; strain TA1535 – S9, 1.0E-04 M): 117% | viability at 10 µM ([4]; strain TA1535 – S9, 1.0E-05 M): 97% | viability at 1.25 µM ([4]; strain TA1535 – S9, 1.25E-06 M): 105% | viability at 25 µM ([4]; strain TA1535 – S9, 2.5E-05 M): 104% | viability at 2.5 µM ([4]; strain TA1535 – S9, 2.5E-06 M): 102% | viability at 50 µM ([4]; strain TA1535 – S9, 5.0E-05 M): 109% | viability at 5 µM ([4]; strain TA1535 – S9, 5.0E-06 M): 100% | viability at 625 nM ([4]; strain TA1535 – S9, 6.25E-07 M): 99% | Inhibition (primary binding competition efficacy), BZPR [5]: 6.7% | inhibition at 10 µM (α1A adrenergic receptor): -5.5% | inhibition at 10 µM (5-HT2C): 22.7% | inhibition at 10 µM (D4 dopamine receptor): -2.5% | inhibition toward five CYP450 enzymes [6]: No significant inhibition | inhibition at 10 µM (CB1): 5.1% | inhibition at 10 µM (H1 histamine receptor): -6% | inhibition at 10 µM (α1D adrenergic receptor): -3.4% | viability at 0.0001 M ([7]; strain TA100 – S9, 1.0E-04 M): 139% | viability at 10 µM ([7]; strain TA100 – S9, 1.0E-05 M): 103% | viability at 1.25 µM ([7]; strain TA100 – S9, 1.25E-06 M): 102% | viability at 25 µM ([7]; strain TA100 – S9, 2.5E-05 M): 115% | viability at 2.5 µM ([7]; strain TA100 – S9, 2.5E-06 M): 99% | viability at 50 µM ([7]; strain TA100 – S9, 5.0E-05 M): 125% | viability at 5 µM ([7]; strain TA100 – S9, 5.0E-06 M): 103% | viability at 625 nM ([7]; strain TA100 – S9, 6.25E-07 M): 101% | dose above which temperature and active behaviors temporarily decreased (C57/BL6J mice; acute): above 100 mg/kg | serious toxic side effects or mortality (C57/BL6J mice; up to 300 mg/kg): no serious toxic side effects or mortality | inhibition at 10 µM [8]: 3% | CYP2D6 Inhibition (CYP2D6): -0.4%
